{
  "source": "patent US10813896B2",
  "about": "“Treatment of intrahepatic cholestatic diseases” (CymaBay Therapeutics, Inc., priority 2017, dated 2020)",
  "key": {"[1]": {"test_system": "subjects with mixed dyslipidemia", "details": "8 weeks, cited from earlier work"}, "[2]": {"test_system": "subjects with PBC", "test": "High dose trial in PBC (NCT02609048)", "format": "in vivo, human", "details": "for cases of asymptomatic increases in transaminases: reversible on cessation of treatment, no elevation of TBIL; for mean decrease from baseline in ALP: last observation carried forward, at least two weeks of treatment; for reduction of LDL-C: after two weeks of dosing", "excerpt": "The trial subjects were adult, male or female, with a diagnosis of PBC by at least two of the following three criteria: (a) a history of alkaline phosphatase (ALP) above the upper limit of normal (ULN) for at least six months, (b) positive anti-mitochondrial antibody titers >1/40 on immunofluorescence or M2 positive by enzyme linked immunosorbent assay or positive PBC-specific antinuclear antibodies, and (c) documented liver biopsy result consistent with PBC, on a stable and recommended dose of UDCA for the past twelve months or UDCA intolerant, and ALP≥1.67×ULN. Exclusion criteria included AST or ALT≥3×ULN, total bilirubin (TBIL)≥2×ULN, autoimmune hepatitis or a history of chronic viral hepatitis, PSC, the current use of fibrates or simvastatin, the use of colchicine, methotrexate, azathioprine, or systemic steroids in the previous two months, the use of an experimental treatment for PBC, and the use of an experimental or unapproved immunosuppressant. The primary study endpoint was decrease in ALP, and the secondary endpoint was the responder rate for subjects achieving ALP<1.67×ULN and total bilirubin within normal limit, and >15% decrease in ALP. Additional secondary endpoints were changes in GGT, TBIL, and 5′-nucleotidase, which are other recognized biochemical markers of cholestasis. […] During the study, three cases of asymptomatic increases in transaminases were observed (two in the 200 mg and one in the 50 mg groups). All three were reversible on cessation of treatment and were not accompanied by elevation of TBIL. Since the study had already shown a clear efficacy signal, the study was discontinued. […] According to the original statistical plan, changes in ALP were calculated using the last observation carried forward. The mean decreases from baseline in ALP for the 50 mg/day and 200 mg/day dose groups were 57% and 62%, respectively, compared with 0.37% for placebo (p<0.0001 for both). The responder rates for the placebo, 50 mg/day, and 200 mg/day groups were 10%, 67% and 100%, respectively, despite the baseline ALP levels being different at 239, 313, and 280 U/L. The p-values comparing the responder rates for the 50 mg/day and 200 mg/day groups with placebo were 0.020 and 0.0004 (Fisher's Exact Test), respectively."}, "[3]": {"test_system": "subjects with PBC", "test": "Low-dose trial in PBC (NCT02955602)", "format": "in vivo, human", "experimental": "In the main study, running for 12 weeks, subjects were to receive either 2, 5, or 10 mg/day; while in an extension study, running for an additional 40 weeks, subjects in the 2 mg/day group were allowed to continue at the 2 mg/day dose or shift to either 5 or 10 mg/day, subjects in the 5 mg/day group were allowed to continue at the 5 mg/day dose or shift to 10 mg/day, and subjects in the 10 mg/day group were allowed to continue at the 10 mg/day dose or shift to 5 mg/day. At baseline (the mean of the screening values and the value at day 1), the subjects had the following values, with numbers in parentheses denoting standard deviations: The study has now been analyzed through 26 weeks: the 12 weeks of the main study and 14 weeks of the extension study."}, "[4]": {"test_system": "subjects with an intrahepatic cholestatic disease such as PSC", "test": "Trial in PSC", "format": "in vivo, human", "details": "1, 2, 5, and 10 mg/day oral", "experimental": "Subjects are permitted their usual other medications, including UDCA. […] At each visit, after a 12-hour fast, blood is drawn and urine collected; and a standard metabolic panel, complete blood count, and standard urinalysis are performed. Blood is analyzed for TC, HDL-C, TG, VLDL-C, LDL-C, and apolipoprotein B, for liver function markers such as total and bone-specific ALP, for GGT, and also for total and conjugated bilirubin. The subjects also maintain health diaries, which are reviewed at each visit."}, "[5]": {"test": "Preclinical study of elimination", "format": "in vivo"}, "[6]": {"test": "Exposure study in hepatic impairment (Child-Pugh classes B and C)", "format": "in vivo, human", "details": "subjects with significant hepatic impairment", "excerpt": "These amounts represent an average daily dose, and not necessarily an amount given at a single dose. Dosing may be as frequent as more than once/day (where the amount, or daily dose, will be divided between the number of administrations per day), but will more typically be once/day (where the amount is given in a single administration). Optionally, particularly in cases of significant hepatic impairment, the dosing may be less frequent than once/day, such as between once/week and every other day, for example once/week, twice/week (especially with the doses at least three days apart), three times/week (especially with the doses at least two days apart), or every other day; so that, as an example, a subject may receive 5 mg twice/week for an amount (daily dose) of 1.4 mg/day."}, "[7]": {"target": "T1, PPARα (Homo sapiens, UniProt Q07869)", "T1 sequence (Q07869 1-468)": "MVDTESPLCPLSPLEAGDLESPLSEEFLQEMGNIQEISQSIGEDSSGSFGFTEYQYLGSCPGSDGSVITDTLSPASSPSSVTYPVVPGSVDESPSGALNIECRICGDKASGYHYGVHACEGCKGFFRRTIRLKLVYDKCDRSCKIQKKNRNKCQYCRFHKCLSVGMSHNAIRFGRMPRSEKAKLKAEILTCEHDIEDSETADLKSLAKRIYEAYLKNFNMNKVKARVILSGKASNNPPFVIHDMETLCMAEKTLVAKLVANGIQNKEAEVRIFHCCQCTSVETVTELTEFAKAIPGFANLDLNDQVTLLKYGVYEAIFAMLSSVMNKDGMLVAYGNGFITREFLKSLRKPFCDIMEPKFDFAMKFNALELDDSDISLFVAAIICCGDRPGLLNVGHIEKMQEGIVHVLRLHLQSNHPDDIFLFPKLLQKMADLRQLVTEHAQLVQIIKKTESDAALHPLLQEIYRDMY", "details": "PPARδ vs PPARα; cited from earlier work"}, "[8]": {"details": "combined 5 mg/day and 5 to 10 mg/day group, 26 weeks"}, "[9]": {"details": "through 26 weeks, 2, 5, 10 mg/day"}, "[10]": {"details": "seladelpar 50 or 100 mg alone or combined with ATV 20 mg, once daily oral, compared to placebo"}},
  "note": "Like-named read-outs stand apart in the source and are kept apart here.",
  "data": [
    {"smiles": "CC(C)c1c(C(=O)Nc2ccccc2)c(-c2ccccc2)c(-c2ccc(F)cc2)n1CC[C@@H](O)C[C@@H](O)CC(=O)O", "note": "[ATV, atorvastatin, reference compound]", "values": [
      {"measurement": "increase of GGT", "setting": "[1]; ATV 20 mg group", "value": 2, "unit": "%"},
      {"measurement": "reduction of ALP", "setting": "[1]; ATV 20 mg group", "value": 6, "unit": "%"}
    ]},
    {"smiles": "CCO[C@H](COc1ccc(C(F)(F)F)cc1)CSc1ccc(OCC(=O)O)c(C)c1", "note": "[seladelpar, [4-({(2R)-2-ethoxy-3-[4-(trifluoromethyl)phenoxy]propyl}sulfanyl)-2-methylphenoxy] acetic acid]", "values": [
      {"measurement": "cases of asymptomatic increases in transaminases", "setting": "[2]; 50 mg group", "value": "one"},
      {"measurement": "responder rate (ALP<1.67×ULN, total bilirubin within normal limit, >15% decrease in ALP)", "setting": "[2]; 50 mg/day", "value": 67, "unit": "%"},
      {"measurement": "mean decrease from baseline in ALP", "setting": "[2]; 50 mg/day oral", "value": 57, "unit": "%"},
      {"measurement": "reduction of LDL-C", "setting": "[2]; 50 mg/day", "value": 16, "unit": "%"},
      {"measurement": "cases of asymptomatic increases in transaminases", "setting": "[2]; 200 mg group", "value": "two"},
      {"measurement": "responder rate (ALP<1.67×ULN, total bilirubin within normal limit, >15% decrease in ALP)", "setting": "[2]; 200 mg/day", "value": 100, "unit": "%"},
      {"measurement": "mean decrease from baseline in ALP", "setting": "[2]; 200 mg/day oral", "value": 62, "unit": "%"},
      {"measurement": "reduction of LDL-C", "setting": "[2]; 200 mg/day", "value": 26, "unit": "%"},
      {"measurement": "adverse events of pruritus", "setting": "[2]; on treatment, 50 and 200 mg/day", "value": "no adverse events of pruritus were reported on treatment"},
      {"measurement": "mean reduction in ALP", "setting": "[3]; 2 mg/day, 12 weeks", "value": 21, "unit": "%"},
      {"measurement": "mean reduction in ALT", "setting": "[3]; 2 mg/day, 12 weeks", "value": 9, "unit": "%"},
      {"measurement": "mean reduction in ALP", "setting": "[3]; 5 mg/day, 12 weeks", "value": 33, "unit": "%"},
      {"measurement": "mean reduction in ALT", "setting": "[3]; 5 mg/day, 12 weeks", "value": 28, "unit": "%"},
      {"measurement": "mean reduction in ALP", "setting": "[3]; 5 mg/day, 26 weeks", "value": 45, "unit": "%"},
      {"measurement": "mean reduction in ALT", "setting": "[3]; 10 mg/day group, 26 weeks", "value": 43, "unit": "%"},
      {"measurement": "subjects with ALP≤1.67×ULN", "setting": "[3]; 10 mg/day group, 26 weeks", "value": 79, "unit": "%"},
      {"measurement": "subjects with ALP≤ULN", "setting": "[3]; 10 mg/day group, 26 weeks", "value": 32, "unit": "%"},
      {"measurement": "subjects with TBIL≤ULN", "setting": "[3]; 10 mg/day group, 26 weeks", "value": 89, "unit": "%"},
      {"measurement": "subjects with a decrease in ALP of ≥15%", "setting": "[3]; 10 mg/day group, 26 weeks", "value": 89, "unit": "%"},
      {"measurement": "mean reduction in ALP", "setting": "[3]; 10 mg/day, 12 weeks", "value": 45, "unit": "%"},
      {"measurement": "mean reduction in ALT", "setting": "[3]; 10 mg/day, 12 weeks", "value": 35, "unit": "%"},
      {"measurement": "mean reduction in ALP", "setting": "[3]; 10 mg/day, 26 weeks", "value": 43, "unit": "%"},
      {"measurement": "mean reduction in ALP", "setting": "[3]; 5 to 10 mg/day, 26 weeks", "value": 43, "unit": "%"},
      {"measurement": "mean reduction in ALT", "setting": "[3]; [8]", "value": 40, "unit": "%"},
      {"measurement": "subjects with ALP≤1.67×ULN", "setting": "[3]; [8]", "value": 68, "unit": "%"},
      {"measurement": "subjects with ALP≤ULN", "setting": "[3]; [8]", "value": 26, "unit": "%"},
      {"measurement": "subjects with TBIL≤ULN", "setting": "[3]; [8]", "value": 95, "unit": "%"},
      {"measurement": "subjects with a decrease in ALP of ≥15%", "setting": "[3]; [8]", "value": 95, "unit": "%"},
      {"measurement": "signals for drug-induced pruritus", "setting": "[3]; [9]", "value": "no signals for drug-induced pruritus"},
      {"measurement": "transaminase safety signals", "setting": "[3]; [9]", "value": "No transaminase safety signals"},
      {"measurement": "serious adverse events", "setting": "[3]; through 26 weeks, all doses, all deemed unrelated to seladelpar", "value": 6},
      {"measurement": "adverse events leading to seladelpar discontinuation", "setting": "[3]; through 26 weeks, all doses, both deemed unrelated to seladelpar", "value": 2},
      {"measurement": "improvement in disease, manifested by decrease in ALP and GGT", "setting": "[4]", "value": "improvement in their disease"},
      {"measurement": "concentration of the drug in bile", "setting": "[5]", "value": "concentrated in bile"},
      {"measurement": "main route of elimination", "setting": "[5]", "value": "through bile"},
      {"measurement": "area-under-the-curve exposure for seladelpar and two of its three principal metabolites", "setting": "[6]", "value": "increase"},
      {"measurement": "maximum plasma concentration of seladelpar", "setting": "[6]", "value": "significant increase"},
      {"measurement": "specificity compared with PPARα", "setting": "[7]", "value": "> 600", "unit": "fold"},
      {"measurement": "reduction of LDL", "setting": "[1]; [10]", "value": "18-43%"},
      {"measurement": "reduction of apolipoprotein B-100", "setting": "[1]; [10]", "value": "20-38%"},
      {"measurement": "reduction of free fatty acids", "setting": "[1]; [10]", "value": "16-28%"},
      {"measurement": "reduction of high-sensitivity C-reactive protein (hs-CRP)", "setting": "[1]; [10]", "value": "43-72%"},
      {"measurement": "reduction of non-HDL-C", "setting": "[1]; [10]", "value": "18-41%"},
      {"measurement": "reduction of triglycerides (TGs)", "setting": "[1]; [10]", "value": "26-30%"},
      {"measurement": "rise of HDL-C", "setting": "[1]; [10]", "value": "1-12%"},
      {"measurement": "number of patients with the metabolic syndrome and a preponderance of small LDL particles", "setting": "[1]; seladelpar alone and in combination with ATV", "value": "reduced the number of patients with the metabolic syndrome and a preponderance of small LDL particles"},
      {"measurement": "reduction of ALP", "setting": "[1]; seladelpar groups", "value": "32-43%"},
      {"measurement": "reduction of GGT", "setting": "[1]; seladelpar groups", "value": "24-28%"}
    ]}
  ]
}
